Reference: ChEMBL document CHEMBL4376823, “The discovery of a potent and selective third-generation EGFR kinase inhibitor as a therapy for EGFR L858R/T790M double mutant non-small cell lung cancer” (Eur J Med Chem, 2019)

Assays:
[1] = molecular target: Epidermal growth factor receptor (Homo sapiens, UniProt P00533, L858R); assay: Inhibition of recombinant human GST-tagged EGFR L858R mutant expressed in baculovirus expression system using Tyr 04 as substrate incubated for 1 hr by Z'-LYTE assay
PC-9 = assay: Antiproliferative activity against human PC9 cells expressing EGFR L858R mutant assessed as reduction in cell viability incubated for 72 hrs by MTT assay; format: functional, cell-based
[2] = molecular target: Epidermal growth factor receptor (Homo sapiens, UniProt P00533); assay: Inhibition of recombinant human GST-tagged EGFR (668 to 1210 residues) expressed in baculovirus expression system using Tyr 04 as substrate incubated for 1 hr by Z'-LYTE assay
Epidermal growth factor receptor (Homo sapiens, UniProt P00533), sequence (P00533 whole entry, the tested form may be a part): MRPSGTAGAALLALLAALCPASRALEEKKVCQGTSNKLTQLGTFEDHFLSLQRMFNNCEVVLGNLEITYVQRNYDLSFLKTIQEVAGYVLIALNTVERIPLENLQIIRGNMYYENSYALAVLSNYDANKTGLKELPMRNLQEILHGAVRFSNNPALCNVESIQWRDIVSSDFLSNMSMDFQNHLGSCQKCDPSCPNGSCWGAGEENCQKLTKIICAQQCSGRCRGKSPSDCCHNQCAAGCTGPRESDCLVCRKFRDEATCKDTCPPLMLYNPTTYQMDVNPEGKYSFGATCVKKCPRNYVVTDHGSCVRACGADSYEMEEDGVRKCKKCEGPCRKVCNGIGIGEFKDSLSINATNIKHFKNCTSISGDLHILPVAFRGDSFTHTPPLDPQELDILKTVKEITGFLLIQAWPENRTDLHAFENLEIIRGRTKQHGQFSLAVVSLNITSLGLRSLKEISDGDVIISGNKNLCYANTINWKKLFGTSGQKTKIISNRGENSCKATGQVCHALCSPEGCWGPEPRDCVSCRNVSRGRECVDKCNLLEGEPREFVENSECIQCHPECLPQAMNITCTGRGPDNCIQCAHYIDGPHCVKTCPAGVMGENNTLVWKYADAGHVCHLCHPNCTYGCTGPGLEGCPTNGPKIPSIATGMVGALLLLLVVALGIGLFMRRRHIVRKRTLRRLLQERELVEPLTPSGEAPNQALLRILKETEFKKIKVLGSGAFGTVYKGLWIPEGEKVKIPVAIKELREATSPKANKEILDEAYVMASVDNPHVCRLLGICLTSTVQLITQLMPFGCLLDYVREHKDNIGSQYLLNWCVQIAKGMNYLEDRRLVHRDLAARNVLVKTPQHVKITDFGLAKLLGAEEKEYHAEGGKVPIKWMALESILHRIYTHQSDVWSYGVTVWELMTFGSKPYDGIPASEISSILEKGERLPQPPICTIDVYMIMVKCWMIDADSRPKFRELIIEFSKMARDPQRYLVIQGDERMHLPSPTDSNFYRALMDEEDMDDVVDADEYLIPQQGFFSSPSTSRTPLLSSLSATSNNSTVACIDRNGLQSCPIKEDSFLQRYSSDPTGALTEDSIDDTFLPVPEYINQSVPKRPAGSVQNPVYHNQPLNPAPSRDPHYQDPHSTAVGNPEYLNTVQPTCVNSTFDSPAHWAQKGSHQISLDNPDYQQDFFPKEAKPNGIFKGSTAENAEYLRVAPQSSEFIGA

NCI-H292 = assay: Antiproliferative activity against human NCI-H292 cells expressing EGFR assessed as reduction in cell viability incubated for 72 hrs by MTT assay; format: functional, cell-based
NCI-H1975 [3] = assay: Antiproliferative activity against human NCI-H1975 cells expressing EGFR T790M/L858R mutant assessed as reduction in cell viability incubated for 72 hrs by MTT assay; format: functional, cell-based
[4] = molecular target: Epidermal growth factor receptor (Homo sapiens, UniProt P00533, L858R/T790M); assay: Inhibition of recombinant human GST-tagged EGFR T790M/L858R mutant expressed in baculovirus expression system using Tyr 04 as substrate incubated for 1 hr by Z'-LYTE assay
Epidermal growth factor receptor (Homo sapiens, UniProt P00533, L858R/T790M), sequence (P00533 25-1210 T790M/L858R limits assumed): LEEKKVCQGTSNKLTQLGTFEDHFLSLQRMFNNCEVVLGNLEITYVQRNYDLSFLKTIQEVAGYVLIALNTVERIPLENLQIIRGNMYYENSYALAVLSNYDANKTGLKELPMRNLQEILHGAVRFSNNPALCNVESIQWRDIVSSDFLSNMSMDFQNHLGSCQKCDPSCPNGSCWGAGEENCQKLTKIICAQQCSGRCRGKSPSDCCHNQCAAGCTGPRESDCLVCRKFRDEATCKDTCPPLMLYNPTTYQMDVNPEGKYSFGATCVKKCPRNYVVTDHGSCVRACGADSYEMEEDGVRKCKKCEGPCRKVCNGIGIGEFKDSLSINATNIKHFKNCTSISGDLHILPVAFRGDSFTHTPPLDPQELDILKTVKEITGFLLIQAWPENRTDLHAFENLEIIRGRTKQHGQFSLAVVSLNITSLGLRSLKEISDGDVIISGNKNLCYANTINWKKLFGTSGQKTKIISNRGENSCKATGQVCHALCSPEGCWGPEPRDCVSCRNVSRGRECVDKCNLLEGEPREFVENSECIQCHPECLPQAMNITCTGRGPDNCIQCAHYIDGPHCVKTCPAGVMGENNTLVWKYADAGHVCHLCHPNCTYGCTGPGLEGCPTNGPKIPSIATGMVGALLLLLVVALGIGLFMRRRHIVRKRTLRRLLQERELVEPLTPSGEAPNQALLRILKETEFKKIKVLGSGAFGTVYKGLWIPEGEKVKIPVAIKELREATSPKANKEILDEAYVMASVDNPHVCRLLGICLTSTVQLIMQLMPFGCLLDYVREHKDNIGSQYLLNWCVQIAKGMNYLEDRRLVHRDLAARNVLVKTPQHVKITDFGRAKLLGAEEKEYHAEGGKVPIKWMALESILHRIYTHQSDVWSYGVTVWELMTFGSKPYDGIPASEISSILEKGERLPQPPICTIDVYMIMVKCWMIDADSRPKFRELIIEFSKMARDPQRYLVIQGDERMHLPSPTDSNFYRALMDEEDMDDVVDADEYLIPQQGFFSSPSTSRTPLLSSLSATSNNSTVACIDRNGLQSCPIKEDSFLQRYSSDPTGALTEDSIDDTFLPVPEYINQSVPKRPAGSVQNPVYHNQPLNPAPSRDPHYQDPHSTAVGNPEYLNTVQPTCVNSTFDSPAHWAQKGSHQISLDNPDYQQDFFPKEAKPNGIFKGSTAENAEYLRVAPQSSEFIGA

NCI-H1975 [5] = assay: Antitumor activity against human NCI-H1975 cells xenografted in ig dosed BALB/c mouse assessed as tumor growth inhibition for one week; format: functional, organism-based
[6] = Selectivity index, ratio of IC50 for human HLF cells to IC50 for human NCI-H1975 cells expressing EGFR T790M/L858R mutant
[7] = Cytotoxicity against human HLF cells expressing EGFR assessed as reduction in cell viability incubated for 72 hrs by MTT assay; format: cell-based
L02 [8] = assay: Cytotoxicity against human LO2 cells expressing EGFR assessed as reduction in cell viability incubated for 72 hrs by MTT assay; format: cell-based; details: L02, 72 h
[9] = Selectivity index, ratio of IC50 for human BJ cells to IC50 for human NCI-H1975 cells expressing EGFR T790M/L858R mutant; format: toxicity
[10] = Selectivity index, ratio of IC50 for human LO2 cells to IC50 for human NCI-H1975 cells expressing EGFR T790M/L858R mutant; format: toxicity
HK-2 [11] = assay: Cytotoxicity against human HK2 cells expressing EGFR assessed as reduction in cell viability incubated for 72 hrs by MTT assay; format: cell-based; details: HK-2, 72 h
BJ = assay: Cytotoxicity against human BJ cells expressing EGFR assessed as reduction in cell viability incubated for 72 hrs by MTT assay; format: cell-based
[12] = Cytotoxicity against human HEK293A cells expressing EGFR assessed as reduction in cell viability incubated for 72 hrs by MTT assay; format: cell-based, HEK293-A
[13] = Selectivity index, ratio of IC50 for human HK2 cells to IC50 for human NCI-H1975 cells expressing EGFR T790M/L858R mutant
HK-2 [14] = assay: Cytotoxicity against human HK2 cells assessed as change in cell morphology at 5 and 10 uM incubated for 48 hrs by microscopic analysis; format: cell-based; details: hk-2, 48 h
L02 [15] = assay: Cytotoxicity against human LO2 cells assessed as change in cell morphology at 5 and 10 uM incubated for 48 hrs by microscopic analysis; format: cell-based; details: l02, 48 h
[16] = Selectivity index, ratio of IC50 for human HEK293A cells to IC50 for human NCI-H1975 cells expressing EGFR T790M/L858R mutant; format: toxicity
[17] = Cytotoxicity against human HEK293A cells assessed as change in cell morphology at 5 and 10 uM incubated for 48 hrs by microscopic analysis; format: cell-based; details: hek293-a
NCI-H1975 [18] = assay: Inhibition of cell migration in human NCI-H1975 cells at 25 nM incubated for 24 hrs by phase contrast microscopy relative to control; format: functional
NCI-H1975 [19] = assay: Antitumor activity against human NCI-H1975 cells xenografted in BALB/c mouse assessed as tumor growth inhibition at 20 mg/kg, ig for one week; format: functional
NCI-H1975 [20] = assay: Antitumor activity against human NCI-H1975 cells xenografted in BALB/c mouse assessed as tumor growth inhibition at 10 mg/kg, ig for one week; format: functional
NCI-H1975 [21] = assay: Antitumor activity against human NCI-H1975 cells xenografted in BALB/c mouse assessed as tumor volume at 20 mg/kg, ig for one week (reference value: 835.52 mm3); format: functional
NCI-H1975 [22] = assay: Antitumor activity against human NCI-H1975 cells xenografted in BALB/c mouse assessed as tumor volume at 10 mg/kg, ig for one week (reference value: 835.52 mm3); format: functional
[23] = Toxicity in BALB/c mouse xenografted with human NCI-H1975 cells assessed as body weight at 20 mg/kg, ig for one week (reference value: 1.6 g); format: organism-based; details: in vivo, po
[24] = Toxicity in BALB/c mouse xenografted with human NCI-H1975 cells assessed as body weight at 10 mg/kg, ig for one week (reference value: 1.6 g); format: organism-based; details: in vivo, po
[25] = Toxicity in BALB/c mouse xenografted with human NCI-H1975 cells assessed as mortality at 10 to 20 mg/kg, ig for one week; format: organism-based; details: in vivo, po
[26] = Mus musculus, NCI-H1975, po, 168 h, read-out: TGI

Epidermal growth factor receptor (Homo sapiens, UniProt P00533, L858R), sequence (P00533 25-1210 L858R limits assumed): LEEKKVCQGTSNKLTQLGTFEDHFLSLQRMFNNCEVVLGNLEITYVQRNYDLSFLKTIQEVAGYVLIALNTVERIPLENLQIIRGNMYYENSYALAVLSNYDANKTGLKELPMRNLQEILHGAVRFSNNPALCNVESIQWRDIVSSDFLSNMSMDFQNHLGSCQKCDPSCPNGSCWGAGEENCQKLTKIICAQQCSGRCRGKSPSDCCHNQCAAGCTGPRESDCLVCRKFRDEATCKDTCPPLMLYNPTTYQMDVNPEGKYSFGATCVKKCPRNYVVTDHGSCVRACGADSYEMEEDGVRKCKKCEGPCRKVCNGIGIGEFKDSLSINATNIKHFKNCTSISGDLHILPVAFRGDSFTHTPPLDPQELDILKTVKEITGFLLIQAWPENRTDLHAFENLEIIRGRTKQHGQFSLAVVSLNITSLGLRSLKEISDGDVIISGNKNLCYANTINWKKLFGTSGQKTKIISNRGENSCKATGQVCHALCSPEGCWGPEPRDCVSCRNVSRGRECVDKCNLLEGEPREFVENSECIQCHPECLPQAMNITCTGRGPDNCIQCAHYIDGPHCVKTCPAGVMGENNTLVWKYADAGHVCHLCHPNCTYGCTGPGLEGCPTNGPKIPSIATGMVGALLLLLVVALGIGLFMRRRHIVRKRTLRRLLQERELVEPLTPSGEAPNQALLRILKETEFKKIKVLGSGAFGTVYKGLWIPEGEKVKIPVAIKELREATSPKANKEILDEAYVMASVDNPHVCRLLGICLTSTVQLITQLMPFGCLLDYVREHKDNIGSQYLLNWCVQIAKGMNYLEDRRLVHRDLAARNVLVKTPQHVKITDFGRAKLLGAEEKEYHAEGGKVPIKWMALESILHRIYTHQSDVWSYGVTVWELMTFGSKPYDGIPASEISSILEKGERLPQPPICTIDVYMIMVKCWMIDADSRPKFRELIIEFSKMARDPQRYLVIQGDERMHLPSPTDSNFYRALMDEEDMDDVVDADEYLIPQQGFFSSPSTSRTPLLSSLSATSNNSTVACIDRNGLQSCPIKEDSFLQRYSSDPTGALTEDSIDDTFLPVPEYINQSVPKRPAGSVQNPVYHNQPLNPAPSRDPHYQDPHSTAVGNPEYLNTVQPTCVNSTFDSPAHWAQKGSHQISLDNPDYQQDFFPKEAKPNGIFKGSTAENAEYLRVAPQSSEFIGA

Compound | IC50 [1] | IC50 (PC-9; Homo sapiens, PC-9, 72 h) | IC50 [2] | IC50 (NCI-H292; Homo sapiens, NCI-H292, 72 h) | IC50 (NCI-H1975 [3]; Homo sapiens, NCI-H1975, 72 h) | IC50 [4] | other results
C=CC(=O)Nc1cc(Nc2nccc(-c3cn(C)c4ccccc34)n2)c(OC)cc1N1CCS(=O)(=O)CC1 | 46 nM | 101 nM | 339 nM | 3720 nM | 96 nM | 38 nM | 
C=CC(=O)Nc1cc(Nc2nccc(-c3cn(C)c4ccccc34)n2)c(OC)cc1N(C)CCSC | 308 nM | 3900 nM | 1430 nM | 17900 nM | 2800 nM | 215 nM | 
C=CC(=O)Nc1cc(Nc2nccc(-c3cn(C)c4ccccc34)n2)c(OC)cc1[S+]([O-])CCN(C)C (single isomer, unassigned; (+)) |  |  |  |  |  |  | TGI (NCI-H1975 [5]): Dose-dependent effect
C=CC(=O)Nc1cc(Nc2nccc(-c3cn(C)c4ccccc34)n2)c(OC)cc1N1CCSCC1 | 79 nM | 308 nM | 522 nM | 19300 nM | 399 nM | 64 nM | 
C=CC(=O)Nc1cc(Nc2nccc(-c3cn(C)c4ccccc34)n2)c(OC)cc1[S+]([O-])CCN(C)C (racemic) | 7 nM | 17 nM | 239 nM | 1050 nM | 13 nM | 5 nM | Ratio IC50 [6]: 715; IC50 ([7]; Homo sapiens, HLF, 72 h): 9310 nM; IC50 (L02 [8]): > 10000 nM; selectivity ratio ([9]; read-out: Ratio IC50): > 769; selectivity ratio ([10]; read-out: Ratio IC50): > 769; IC50 (HK-2 [11]): > 10000 nM; IC50 (BJ): > 10000 nM; IC50 ([12]; hek293-a): 4190 nM; Ratio IC50 [13]: >769; Activity (HK-2 [14]): Non-Toxic; Activity (L02 [15]): Non-Toxic; selectivity ratio ([16]; read-out: Ratio IC50): 322; Activity [17]: Non-Toxic
C=CC(=O)Nc1cc(Nc2nccc(-c3cn(C)c4ccccc34)n2)c(OC)cc1N(C)CCO |  | 137 nM |  | 8320 nM | 184 nM |  | 
C=CC(=O)Nc1cc(Nc2nccc(-c3cn(C)c4ccccc34)n2)c(OC)cc1N(C)CCCl | 421 nM | 1100 nM | 1980 nM | 12100 nM | 654 nM | 122 nM | 
C=CC(=O)Nc1cc(Nc2nccc(-c3cn(C)c4ccccc34)n2)c(OC)cc1N(C)CCN(C)C [OSIMERTINIB] |  | […] |  | 1080 nM | […] |  | inhibition (INH) (NCI-H1975 [18]): 60.54%; IC50 ([7]; Homo sapiens, HLF, 72 h): 8740 nM; IC50 (L02 [8]): […]; IC50 (HK-2 [11]): 3560 nM; IC50 (BJ): > 10000 nM; IC50 ([12]; Homo sapiens, HEK293-A, 72 h): 2420 nM; Activity (HK-2 [14]): Toxic; Activity (L02 [15]): Toxic; Activity [17]: Toxic
C=CC(=O)Nc1cc(Nc2nccc(-c3cn(C)c4ccccc34)n2)c(OC)cc1N1CC[S+]([O-])CC1 | 65 nM | 177 nM | 421 nM | 8360 nM | 106 nM | 75 nM | 
C=CC(=O)Nc1cc(Nc2nccc(-c3cn(C)c4ccccc34)n2)c(OC)cc1[S+]([O-])CCN(C)C.O=S(=O)(O)O (single isomer, unassigned; (-)) |  |  |  |  |  |  | inhibition in vivo at 20 mg/kg (NCI-H1975 [19]; [26]): 94.3%; inhibition in vivo at 10 mg/kg (NCI-H1975 [20]; [26]): 87.6%; Activity (NCI-H1975 [21]): 48.23 mm3; Activity (NCI-H1975 [22]): 106.81 mm3; Activity [23]: 2.4 g; Activity [24]: 1.6 g; Activity [25]: Non-Toxic
C=CC(=O)Nc1cc(Nc2nccc(-c3cn(C)c4ccccc34)n2)c(OC)cc1[S+]([O-])CCN(C)C.O=S(=O)(O)O (single isomer, unassigned; (+)) |  |  |  |  |  |  | TGI (NCI-H1975 [19]): 85.41%; TGI (NCI-H1975 [20]): 81.82%; Activity (NCI-H1975 [21]): 117.87 mm3; Activity (NCI-H1975 [22]): 141.5 mm3; Activity [23]: 2.1 g; Activity [24]: 2.1 g
C=CC(=O)Nc1cc(Nc2nccc(-c3cn(C)c4ccccc34)n2)c(OC)cc1S(=O)(=O)CCN(C)C |  | 2280 nM |  | 6420 nM | 992 nM |  | 
C=CC(=O)Nc1cc(Nc2nccc(-c3cn(C)c4ccccc34)n2)c(OC)cc1N(C)CCN(C)C.O=S(=O)(O)O |  |  |  |  |  |  | TGI (NCI-H1975 [19]): 98.49%; Activity (NCI-H1975 [21]): 18.23 mm3; Activity [23]: 1.9 g; Activity [25]: Non-Toxic
C=CC(=O)Nc1cc(Nc2nccc(-c3cn(C)c4ccccc34)n2)c(OC)cc1[S+]([O-])CCN(C)C (stereo in doubt; (+)-4i) | 6 nM |  | 318 nM |  |  | 5 nM | Ratio IC50 [6]: 233; IC50 [7]: 9720 nM; IC50 (PC-9; pc-9): 18 nM; Ratio IC50 [9]: > 625; Ratio IC50 [10]: > 625; IC50 ([12]; hek293-a): 3730 nM; Ratio IC50 [13]: >625; IC50 (NCI-H292; nci-h292): 1340 nM; IC50 (NCI-H1975 [3]; nci-h1975): 16 nM; Ratio IC50 [16]: 233
C=CC(=O)Nc1cc(Nc2nccc(-c3cn(C)c4ccccc34)n2)c(OC)cc1N(C)CC[S+](C)[O-] (stereo not given) | 475 nM | 1490 nM | 1740 nM | 13900 nM | 1210 nM | 105 nM | 
C=CC(=O)Nc1cc(Nc2nccc(-c3cn(C)c4ccccc34)n2)c(OC)cc1SCCN(C)C | 14 nM | 44 nM | 329 nM | 1040 nM | 49 nM | 11 nM | 
